The text below walks through data of ChEMBL document CHEMBL1142803, “Synthesis and in vitro study of novel 7-O-acyl derivatives of Oroxylin A as antibacterial agents” (2005).

In brackets after ≈: the same amount, converted by molar mass.

As a reminder, the MIC is the smallest concentration in the dilution series that meets the test's criterion for growth inhibition.

For one experiment, the system named is Staphylococcus aureus. The experiment can be described thus: Minimum inhibitory concentration against gram positive Staphylococcus aureus (MTCC 96) using broth dilution method. It counts as functional. Background: Broth dilution looks for growth in wells or tubes with falling amounts of substance.
Another experiment has as its system Bacillus sp. The experiment can be described thus: Minimum inhibitory concentration against gram positive Bacillus sphaericus (MTCC 11) using broth dilution method. In kind it is functional, Lysinibacillus sphaericus. The note with it: Bacillus sp. (in: firmicutes).
Another experiment relates to Klebsiella aerogenes. The experiment can be described thus: Minimum inhibitory concentration against gram negative Klebsiella aerogenes (MTCC 39) using broth dilution method. It counts as functional.
Experiment [1] in a line: Minimum inhibitory concentration against gram negative Chromobacterium violaceum (MTCC 2656) using broth dilution method. In kind it is functional.
The next experiment has as its system Bacillus subtilis. The experiment can be described thus: Minimum inhibitory concentration against gram positive Bacillus subtilis (MTCC 441) using broth dilution method. It counts as functional.

Turning to `CCCC(=O)Oc1cc2oc(-c3ccccc3)cc(=O)c2c(O)c1OC`, the MIC was determined as 25 µg/mL (≈ 70.6 µM) with Staphylococcus aureus; 6.25 µg/mL (≈ 17.6 µM) in the experiment with Bacillus sp.; 25 µg/mL (≈ 70.6 µM) against Klebsiella aerogenes; 6.25 µg/mL (≈ 17.6 µM) in experiment [1]; 25 µg/mL (≈ 70.6 µM) in the experiment on Bacillus subtilis.

Regarding `COc1c(OC(C)=O)cc2oc(-c3ccccc3)cc(=O)c2c1O`, the MIC against Staphylococcus aureus amounted to 50 µg/mL (≈ 153 µM); against Bacillus sp. it was 25 µg/mL (≈ 76.6 µM); in the experiment with Klebsiella aerogenes, 50 µg/mL (≈ 153 µM); in experiment [1], 25 µg/mL (≈ 76.6 µM); with Bacillus subtilis it was 12.5 µg/mL (≈ 38.3 µM).

Take `CCCCCCCCCCCCCCCCCC(=O)Oc1cc2oc(-c3ccccc3)cc(=O)c2c(O)c1OC`: the MIC with Staphylococcus aureus is 25 µg/mL (≈ 45.4 µM); in the experiment on Bacillus sp. it was 12.5 µg/mL (≈ 22.7 µM); with Klebsiella aerogenes, 25 µg/mL (≈ 45.4 µM); in experiment [1], 12.5 µg/mL (≈ 22.7 µM); with Bacillus subtilis it was 12.5 µg/mL (≈ 22.7 µM).

In the case of `CCCCCCCCCCCCCC(=O)Oc1cc2oc(-c3ccccc3)cc(=O)c2c(O)c1OC`, the MIC was 50 µg/mL (≈ 101 µM) in the experiment with Staphylococcus aureus; 12.5 µg/mL (≈ 25.3 µM) in the experiment with Bacillus sp.; 50 µg/mL (≈ 101 µM) against Klebsiella aerogenes; 25 µg/mL (≈ 50.5 µM) in experiment [1]; 25 µg/mL (≈ 50.5 µM) against Bacillus subtilis.

Take `COc1cc(C(=O)Oc2cc3oc(-c4ccccc4)cc(=O)c3c(O)c2OC)cc(OC)c1OC`: the minimal inhibitory concentration (MIC) amounted to 25 µg/mL (≈ 52.3 µM) with Staphylococcus aureus; 25 µg/mL (≈ 52.3 µM) with Bacillus sp.; 12.5 µg/mL (≈ 26.1 µM) against Klebsiella aerogenes; 6.25 µg/mL (≈ 13.1 µM) in experiment [1]; 12.5 µg/mL (≈ 26.1 µM) in the experiment on Bacillus subtilis.

`CCOc1cc2oc(-c3ccccc3)cc(=O)c2c(O)c1OC`: the MIC against Staphylococcus aureus worked out at 50 µg/mL (≈ 160 µM); against Bacillus sp., 25 µg/mL (≈ 80 µM); with Klebsiella aerogenes it was 25 µg/mL (≈ 80 µM); in experiment [1], 25 µg/mL (≈ 80 µM); against Bacillus subtilis, 25 µg/mL (≈ 80 µM).

Take `CCOc1cc2oc(-c3ccccc3)cc(=O)c2c(OCC)c1OC`: the MIC against Staphylococcus aureus worked out at 25 µg/mL (≈ 73.4 µM); against Bacillus sp., 12.5 µg/mL (≈ 36.7 µM); against Klebsiella aerogenes, 25 µg/mL (≈ 73.4 µM); in experiment [1], 25 µg/mL (≈ 73.4 µM); in the experiment with Bacillus subtilis, 25 µg/mL (≈ 73.4 µM).

As for `CCCCCCCCCCCCCCCC(=O)Oc1cc2oc(-c3ccccc3)cc(=O)c2c(O)c1OC`, the MIC stood at 25 µg/mL (≈ 47.8 µM) in the experiment on Staphylococcus aureus; 25 µg/mL (≈ 47.8 µM) with Bacillus sp.; 12.5 µg/mL (≈ 23.9 µM) in the experiment on Klebsiella aerogenes; 25 µg/mL (≈ 47.8 µM) in experiment [1]; 25 µg/mL (≈ 47.8 µM) against Bacillus subtilis.

As to `CCCCCCCCCCCC(=O)Oc1cc2oc(-c3ccccc3)cc(=O)c2c(O)c1OC`, the minimal inhibitory concentration (MIC) was 12.5 µg/mL (≈ 26.8 µM) against Staphylococcus aureus; 12.5 µg/mL (≈ 26.8 µM) against Bacillus sp.; 12.5 µg/mL (≈ 26.8 µM) in the experiment on Klebsiella aerogenes; 25 µg/mL (≈ 53.6 µM) in experiment [1]; 25 µg/mL (≈ 53.6 µM) in the experiment with Bacillus subtilis.

Consider `COc1c(OC(=O)C/C=C/c2ccccc2)cc2oc(-c3ccccc3)cc(=O)c2c1O`, for which the MIC against Staphylococcus aureus stood at 12.5 µg/mL (≈ 29.2 µM); in the experiment on Bacillus sp., 12.5 µg/mL (≈ 29.2 µM); against Klebsiella aerogenes it was 12.5 µg/mL (≈ 29.2 µM); in experiment [1] it was 25 µg/mL (≈ 58.4 µM); with Bacillus subtilis it was 25 µg/mL (≈ 58.4 µM).

Regarding `COc1c(OC(=O)c2ccc(C)cc2)cc2oc(-c3ccccc3)cc(=O)c2c1O`, the minimum inhibitory concentration (MIC) in the experiment with Staphylococcus aureus was 50 µg/mL (≈ 124 µM); against Bacillus sp. it was 25 µg/mL (≈ 62.1 µM); against Klebsiella aerogenes, 25 µg/mL (≈ 62.1 µM); in experiment [1] it was 50 µg/mL (≈ 124 µM); against Bacillus subtilis, 50 µg/mL (≈ 124 µM).

As for `COc1c(OC(=O)c2ccccc2)cc2oc(-c3ccccc3)cc(=O)c2c1O`, the minimum inhibitory concentration (MIC) against Staphylococcus aureus stood at 25 µg/mL (≈ 64.4 µM); in the experiment on Bacillus sp., 6.25 µg/mL (≈ 16.1 µM); in the experiment with Klebsiella aerogenes, 25 µg/mL (≈ 64.4 µM); in experiment [1], 12.5 µg/mL (≈ 32.2 µM); in the experiment on Bacillus subtilis, 12.5 µg/mL (≈ 32.2 µM).

Consider `COc1c(OC(=O)c2ccccc2Cl)cc2oc(-c3ccccc3)cc(=O)c2c1O`, for which the MIC is 12.5 µg/mL (≈ 29.6 µM) in the experiment with Staphylococcus aureus; 25 µg/mL (≈ 59.1 µM) against Bacillus sp.; 25 µg/mL (≈ 59.1 µM) in the experiment on Klebsiella aerogenes; 25 µg/mL (≈ 59.1 µM) in experiment [1]; 25 µg/mL (≈ 59.1 µM) in the experiment on Bacillus subtilis.

On to `CCCCCC(=O)Oc1cc2oc(-c3ccccc3)cc(=O)c2c(O)c1OC`, for which the minimal inhibitory concentration (MIC) against Staphylococcus aureus was determined as 25 µg/mL (≈ 65.4 µM); with Bacillus sp., 12.5 µg/mL (≈ 32.7 µM); in the experiment on Klebsiella aerogenes, 25 µg/mL (≈ 65.4 µM); in experiment [1], 25 µg/mL (≈ 65.4 µM); with Bacillus subtilis it was 25 µg/mL (≈ 65.4 µM).

Consider `CN[C@@H]1[C@H](O[C@H]2[C@H](O[C@H]3[C@H](O)[C@@H](O)[C@H](N=C(N)N)[C@@H](O)[C@@H]3N=C(N)N)O[C@@H](C)[C@]2(O)C=O)O[C@@H](CO)[C@H](O)[C@H]1O` (stereo in doubt) [STREPTOMYCIN], for which the MIC came out at 6.25 µg/mL (≈ 10.7 µM) in the experiment with Staphylococcus aureus; 12.5 µg/mL (≈ 21.5 µM) against Bacillus sp.; 1.56 µg/mL (≈ 2.69 µM) in the experiment on Klebsiella aerogenes; 3.12 µg/mL (≈ 5.37 µM) in experiment [1]; 6.25 µg/mL (≈ 10.7 µM) against Bacillus subtilis.

As for `COc1cc2oc(-c3ccccc3)cc(=O)c2c(OC)c1OC` [BAICALEIN TRIMETHYL ETHER], the MIC in the experiment with Staphylococcus aureus was 25 µg/mL (≈ 80 µM); in the experiment on Bacillus sp., 25 µg/mL (≈ 80 µM); against Klebsiella aerogenes it was 50 µg/mL (≈ 160 µM); in experiment [1] it was 25 µg/mL (≈ 80 µM); in the experiment with Bacillus subtilis, 50 µg/mL (≈ 160 µM).

Turning to `COc1cc2oc(-c3ccccc3)cc(=O)c2c(O)c1OC` [MOSLOFLAVONE], the MIC came out at 50 µg/mL (≈ 168 µM) against Staphylococcus aureus; 12.5 µg/mL (≈ 41.9 µM) with Bacillus sp.; 50 µg/mL (≈ 168 µM) against Klebsiella aerogenes; 25 µg/mL (≈ 83.8 µM) in experiment [1]; 25 µg/mL (≈ 83.8 µM) with Bacillus subtilis.

Turning to `COc1c(O)cc2oc(-c3ccccc3)cc(=O)c2c1O` [OROXYLIN A], the MIC worked out at 50 µg/mL (≈ 176 µM) against Staphylococcus aureus; 25 µg/mL (≈ 87.9 µM) in the experiment on Bacillus sp.; 50 µg/mL (≈ 176 µM) in the experiment with Klebsiella aerogenes; 25 µg/mL (≈ 87.9 µM) in experiment [1]; 50 µg/mL (≈ 176 µM) in the experiment with Bacillus subtilis.

Consider `CC1(C)S[C@@H]2[C@H](NC(=O)COc3ccccc3)C(=O)N2[C@H]1C(=O)O` [PENICILLIN V], for which the MIC stood at 1.56 µg/mL (≈ 4.46 µM) in the experiment with Staphylococcus aureus; 3.12 µg/mL (≈ 8.92 µM) in the experiment with Bacillus sp.; 6.25 µg/mL (≈ 17.8 µM) in the experiment on Klebsiella aerogenes; 12.5 µg/mL (≈ 35.7 µM) in experiment [1]; 1.56 µg/mL (≈ 4.46 µM) in the experiment with Bacillus subtilis.
